Molecules are shown by their SMILES.

This test addresses T1, β2-chimaerin (Homo sapiens, UniProt P52757).
T1 sequence (P52757 1-468): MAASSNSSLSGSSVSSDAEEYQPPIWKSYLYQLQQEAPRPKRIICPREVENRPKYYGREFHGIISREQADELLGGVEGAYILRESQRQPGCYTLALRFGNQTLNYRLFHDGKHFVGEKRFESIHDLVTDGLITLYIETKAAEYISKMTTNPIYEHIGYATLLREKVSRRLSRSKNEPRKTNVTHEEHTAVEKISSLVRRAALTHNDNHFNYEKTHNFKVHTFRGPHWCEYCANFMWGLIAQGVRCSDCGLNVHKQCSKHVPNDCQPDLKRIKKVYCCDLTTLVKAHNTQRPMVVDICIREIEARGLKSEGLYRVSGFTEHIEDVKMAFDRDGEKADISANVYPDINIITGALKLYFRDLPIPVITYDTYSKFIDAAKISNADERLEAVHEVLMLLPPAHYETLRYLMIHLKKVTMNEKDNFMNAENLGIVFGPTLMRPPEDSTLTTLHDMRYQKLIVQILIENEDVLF
In kind it is cell-based.

As a reminder, the EC50 is the concentration needed to bring the measured effect to its halfway point. A higher EC50 goes with lower potency in that assay. As to `CCCCCCCCCCCCCC(=O)O[C@@H]1[C@@H](C)[C@@]2(O)[C@@H](C=C(CO)C[C@]3(O)C(=O)C(C)=C[C@@H]23)[C@@H]2C(C)(C)[C@]12OC(C)=O` [Phorbol 12-myristate 13-acetate], the concentration giving a half-maximal response (EC50) was determined as 1202 ± 1 nM.

For the origin of these results see paper PMC3969763 (Molecular biology reports, 2014).
